Test results from PMC6162346, “The MALDI-TOF E2/E3 Ligase Assay as Universal Tool for Drug Discovery in the Ubiquitin Pathway” (Cell Chemical Biology, 2018).
Several values for one entry are separate records, joined by “and”; a condition that tells them apart may be missing. Identical values can stand only once. Entries after “also recorded” stand apart in the source; their conditions may differ. Like-named read-outs stand apart in the source and are kept apart here.

Columns and labels:
HOIP [1] = target: T1, HOIP (Homo sapiens, UniProt Q96EP0); test: MALDI-TOF E2/E3 ligase assay (mono-ubiquitin consumption), UBE1/UBE2L3/HOIP; assay type: biochemical; details: for remaining activity at 10 µM: read-out: Residual Activity (%), UBE1/UBE2L3/HOIP
T1 construct: HOIP (697-1072) DU22629; GST (cleaved yes); host or cells: E. coli BL21
T1 sequence (Q96EP0 697-1072): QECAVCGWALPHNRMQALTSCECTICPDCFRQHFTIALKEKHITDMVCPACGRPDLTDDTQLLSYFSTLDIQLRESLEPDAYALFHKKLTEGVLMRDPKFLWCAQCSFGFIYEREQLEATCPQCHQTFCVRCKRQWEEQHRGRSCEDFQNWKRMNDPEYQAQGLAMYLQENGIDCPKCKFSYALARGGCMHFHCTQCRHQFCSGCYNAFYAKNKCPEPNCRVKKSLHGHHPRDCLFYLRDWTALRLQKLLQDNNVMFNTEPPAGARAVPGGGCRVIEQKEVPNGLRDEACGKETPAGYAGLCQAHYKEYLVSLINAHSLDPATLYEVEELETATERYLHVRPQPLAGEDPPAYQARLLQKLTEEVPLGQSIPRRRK

MDM2 = MDM2 (Homo sapiens, UniProt Q00987); test: MALDI-TOF E2/E3 ligase assay (mono-ubiquitin consumption), UBE1/UBE2D1/MDM2; assay type: biochemical; details: for Inhibition effect on MDM2 with β-mercaptoethanol (BME) present: initial presence of BME in the MDM2 preparation; for remaining activity at 10 µM: read-out: Residual Activity (%), UBE1/UBE2D1/MDM2
ITCH [2] = target: T2, ITCH (Homo sapiens, UniProt Q96J02); test: MALDI-TOF E2/E3 ligase assay (mono-ubiquitin consumption), UBE1/UBE2D1/ITCH; assay type: biochemical; details: for remaining activity at 10 µM: read-out: Residual Activity (%), UBE1/UBE2D1/ITCH
T2 construct: ITCH Q96J02 - GST full length; host or cells: E. coli BL21

UBE2L3 = target: T3, UBE2L3 (Homo sapiens, UniProt P68036); test: MALDI-TOF MS of intact E2 protein incubated with inhibitor (covalent modification); assay type: binding; details: UBE2L3 3 µM, inhibitor 100 µM, 30 min, room temperature
T3 construct: UBE2L3 P68036 UbcH7 - full length; 6His (cleaved yes); host or cells: E. coli BL21 DE3 codon plus

ITCH [3] = tested on: ITCH; set-up: method as in Rossi et al., 2014; details: irreversible block; ref Rossi et al., 2014; cited from earlier work
HOIP [4] = target: T1, HOIP; assay type: biochemical
[5] = UBE1/UBE2D1/MDM2, compounds pre-incubated 30 min, then ubiquitin 30 or 40 min, four-parameter fit, read-out: IC50 against MDM2
[6] = UBE1/UBE2D1/ITCH, compounds pre-incubated 30 min, then ubiquitin 30 or 40 min, four-parameter fit, read-out: IC50 against ITCH
[7] = UBE1/UBE2L3/HOIP, compounds pre-incubated 30 min, then ubiquitin 30 or 40 min, four-parameter fit, read-out: IC50 against HOIP
[8] = HTS single point, 10 μM compound

T3 sequence (P68036 whole entry): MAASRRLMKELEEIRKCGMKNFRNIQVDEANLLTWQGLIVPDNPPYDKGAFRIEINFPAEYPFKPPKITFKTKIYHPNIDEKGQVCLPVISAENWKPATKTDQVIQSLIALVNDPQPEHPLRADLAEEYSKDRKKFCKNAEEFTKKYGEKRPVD
MDM2, sequence (Q00987 whole entry): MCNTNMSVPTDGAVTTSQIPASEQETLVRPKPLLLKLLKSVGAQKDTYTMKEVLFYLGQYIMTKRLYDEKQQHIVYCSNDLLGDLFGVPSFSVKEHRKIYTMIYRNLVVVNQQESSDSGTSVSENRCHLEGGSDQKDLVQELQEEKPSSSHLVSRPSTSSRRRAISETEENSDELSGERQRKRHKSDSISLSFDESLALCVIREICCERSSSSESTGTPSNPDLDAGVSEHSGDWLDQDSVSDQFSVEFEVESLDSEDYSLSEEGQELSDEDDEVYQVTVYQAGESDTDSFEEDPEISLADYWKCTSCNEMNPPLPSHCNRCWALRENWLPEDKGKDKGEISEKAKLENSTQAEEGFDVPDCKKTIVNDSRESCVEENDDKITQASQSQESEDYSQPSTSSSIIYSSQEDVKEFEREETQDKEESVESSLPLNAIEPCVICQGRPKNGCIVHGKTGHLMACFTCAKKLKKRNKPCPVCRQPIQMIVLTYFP
T2 sequence (Q96J02 whole entry): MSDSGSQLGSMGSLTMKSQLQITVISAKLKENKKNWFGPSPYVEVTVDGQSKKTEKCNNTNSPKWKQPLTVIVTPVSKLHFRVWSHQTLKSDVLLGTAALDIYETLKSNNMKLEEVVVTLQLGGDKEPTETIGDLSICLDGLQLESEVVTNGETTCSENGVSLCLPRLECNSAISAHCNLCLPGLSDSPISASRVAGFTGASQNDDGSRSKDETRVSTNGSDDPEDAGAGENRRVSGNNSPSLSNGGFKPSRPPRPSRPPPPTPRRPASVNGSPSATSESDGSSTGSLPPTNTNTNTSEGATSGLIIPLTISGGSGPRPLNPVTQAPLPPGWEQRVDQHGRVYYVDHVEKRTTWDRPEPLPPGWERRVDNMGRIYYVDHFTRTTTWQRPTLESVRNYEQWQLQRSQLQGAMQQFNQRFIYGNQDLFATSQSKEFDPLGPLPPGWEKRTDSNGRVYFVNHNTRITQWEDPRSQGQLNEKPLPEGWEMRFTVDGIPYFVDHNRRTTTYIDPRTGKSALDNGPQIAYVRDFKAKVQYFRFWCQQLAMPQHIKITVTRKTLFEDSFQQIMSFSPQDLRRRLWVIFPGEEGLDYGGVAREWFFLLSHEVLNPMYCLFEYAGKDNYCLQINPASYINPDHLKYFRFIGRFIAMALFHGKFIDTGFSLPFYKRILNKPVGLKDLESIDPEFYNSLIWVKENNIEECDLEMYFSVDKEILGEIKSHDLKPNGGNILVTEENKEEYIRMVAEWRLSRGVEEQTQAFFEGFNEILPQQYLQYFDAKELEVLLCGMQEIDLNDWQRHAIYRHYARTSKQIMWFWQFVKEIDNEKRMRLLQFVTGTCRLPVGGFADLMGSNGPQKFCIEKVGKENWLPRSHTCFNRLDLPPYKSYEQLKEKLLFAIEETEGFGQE

COc1ccc(CCN)cc1OC [2-(3,4-dimethoxyphenyl) ethanamine]
remaining activity at 10 µM (HOIP [1]): 68.2%

Cc1ccc(S(=O)(=O)/C=C/C#N)cc1 [BAY117082]
Hill Slope Values for calculated IC50s, MDM2 (MDM2; Table S4): 3.5
IC50 (MDM2; [5]): 2.4 µM
Inhibition effect on MDM2 with β-mercaptoethanol (BME) present (MDM2): suppressed
Hill Slope Values for calculated IC50s, ITCH (ITCH [2]; Table S4): 1.23
IC50 (ITCH [2]; [6]): 25.9 µM
Hill Slope Values for calculated IC50s, HOIP (HOIP [1]; Table S4): 2.48
IC50 (HOIP [1]; [7]): 2.9 µM
Covalent modification of E2 enzyme UBE2L3 (in words) (UBE2L3): covalently modified E2 enzymes
Mass shift of UBE2L3 after incubation with inhibitor (UBE2L3): 153 Da

CN(C)CCCN1c2ccccc2CCc2ccc(Cl)cc21 [Clomipramine]
Concentration achieving complete inhibition of ITCH ubiquitin transthiolation (ITCH [3]): 0.8 mM
Inhibition of MDM2 at 10 μM (in words) (MDM2): did not inhibit
Inhibition of ITCH at 10 μM (in words) (ITCH [2]): did not inhibit
IC50 (ITCH [2]; dose-response curve, final concentrations between 2mM and 7 µM, read-out: IC50 against ITCH): 503 µM and ~500 µM
Inhibition of HOIP at 10 μM (in words) (HOIP [1]; 10 μM): did not inhibit

CN1C(=O)[C@]23CC4=CC=C[C@H](O)[C@H]4N2C(=O)[C@@]1(CO)SS3 [Gliotoxin]
Hill Slope Values for calculated IC50s, MDM2 (MDM2): 2.18
IC50 (MDM2): 0.5 µM
Hill Slope Values for calculated IC50s, ITCH (ITCH [2]): 5.12
IC50 (ITCH [2]): 30.5 µM
Hill Slope Values for calculated IC50s, HOIP (HOIP [1]): 2.01
IC50 (HOIP [1]): 2.8 µM

COc1ccc(C2=N[C@@H](c3ccc(Cl)cc3)[C@@H](c3ccc(Cl)cc3)N2C(=O)N2CCNC(=O)C2)c(OC(C)C)c1 [Nutlin3A, nutlin-3A]
Inhibitory activity toward ITCH in IC50 curves (in words) (ITCH [2]; 0–100 μM): did not show any inhibitory activity
IC50 against ITCH (ITCH [2]; UBE1/UBE2D1/ITCH, compounds pre-incubated 30 min, then ubiquitin 30 or 40 min, four-parameter fit): ambiguous
Inhibitory activity toward HOIP in IC50 curves (in words) (HOIP [1]; 0–100 μM): did not show any inhibitory activity
IC50 against HOIP (HOIP [1]; UBE1/UBE2L3/HOIP, compounds pre-incubated 30 min, then ubiquitin 30 or 40 min, four-parameter fit): ambiguous

N#CSc1cc(SC#N)c(N)nc1N [PR619]
Hill Slope Values for calculated IC50s, MDM2 (MDM2; Table S4): 1.89
IC50 (MDM2; [5]): 0.6 µM
Hill Slope Values for calculated IC50s, ITCH (ITCH [2]; Table S4): 3.14
IC50 (ITCH [2]; [6]): 0.4 µM
Hill Slope Values for calculated IC50s, HOIP (HOIP [1]; Table S4): 7.8
IC50 (HOIP [1]; [7]): 0.2 µM
Covalent modification of E2 enzyme UBE2L3 (in words) (UBE2L3): extensively modified UBE2L3; also recorded: covalently modified E2 enzymes

CCOC(=O)c1ccc(N2NC(=O)/C(=C/c3ccc([N+](=O)[O-])o3)C2=O)cc1 [PYR41]
Hill Slope Values for calculated IC50s, MDM2 (MDM2; Table S4): 2.23
IC50 (MDM2; [5]): 3.1 µM
Inhibition effect on MDM2 with β-mercaptoethanol (BME) present (MDM2): suppressed
Hill Slope Values for calculated IC50s, ITCH (ITCH [2]; Table S4): 1.22
IC50 (ITCH [2]; [6]): 11.3 µM
Hill Slope Values for calculated IC50s, HOIP (HOIP [1]; Table S4): 3.73
IC50 (HOIP [1]; [7]): 5.7 µM

Cc1[nH]cnc1CN1CCc2c(c3ccccc3n2C)C1=O [alosetron]
remaining activity at 10 µM (ITCH [2]; [8]): 58.2%

C[C@H]1[C@H](NC(=O)/C(=N\OC(C)(C)C(=O)O)c2csc(N)n2)C(=O)N1S(=O)(=O)O [aztreonam]
remaining activity at 10 µM (MDM2; [8]): 56.7%

Cn1c(CCCC(=O)O)nc2cc(N(CCCl)CCCl)ccc21 [bendamustine]
IC50 (MDM2): 114 µM
Inhibition of MDM2 at 10 μM (in words) (MDM2): did not significantly affect
IC50 (ITCH [2]): 76.8 µM
Inhibition of ITCH at 10 μM (in words) (ITCH [2]): did not significantly affect
IC50 (HOIP [1]; IC50 against HOIP, UBE1/UBE2L3/HOIP, compounds pre-incubated 30 min, then ubiquitin 30 or 40 min, four-parameter fit): 6.4 µM and 6.3 µM
Fold higher activity against HOIP than against ITCH (HOIP [1]; from IC50 values): 12 fold
Fold higher activity against HOIP than against MDM2 (HOIP [1]; from IC50 values): 18 fold
remaining activity at 10 µM (HOIP [1]): 6.3%
Inhibition of HOIP when paired with UBE2D1 (in words) (HOIP [4]): inhibits HOIP independently from the E2 in use; also recorded: retained its inhibition power

CCCCN1CCCCC1C(=O)Nc1c(C)cccc1C (centres unmarked) [bupivacaine]
remaining activity at 10 µM (HOIP [1]; [8]): 66.2%

CCOc1nc2cccc(C(=O)OC(C)OC(=O)OC3CCCCC3)c2n1Cc1ccc(-c2ccccc2-c2nnn[nH]2)cc1 (centres unmarked) [candesartan cilexetil]
inhibition at 10 µM (MDM2; [8]): > 50%
remaining activity at 10 µM (MDM2; [8]): 48.6%
IC50 (MDM2; [5]): 8.8 µM

N[C@@H](C(=O)N[C@@H]1C(=O)N2C(C(=O)O)=C(CSc3c[nH]nn3)CS[C@H]12)c1ccc(O)cc1 [cefatrizine]
remaining activity at 10 µM (HOIP [1]; [8]): 49%

O=c1c2ccccc2[se]n1-c1ccccc1 [ebselen]
remaining activity at 10 µM (HOIP [1]; [8]): 36.2%

C=C(CC)C(=O)c1ccc(OCC(=O)O)c(Cl)c1Cl [ethacrynic acid]
remaining activity at 10 µM (MDM2; [8]): 53.9%
remaining activity at 10 µM (ITCH [2]; [8]): 29.5%

OC(Cn1cncn1)(Cn1cncn1)c1ccc(F)cc1F [fluconazole]
remaining activity at 10 µM (HOIP [1]; [8]): 46.4%

Oc1c(Cl)cc(Cl)c(Cl)c1Cc1c(O)c(Cl)cc(Cl)c1Cl [hexachlorophene]
remaining activity at 10 µM (MDM2): 52.4%
remaining activity at 10 µM (ITCH [2]): 22.2%

O=C(NCCN1CCOCC1)c1ccc(Cl)cc1 [moclobemide]
remaining activity at 10 µM (HOIP [1]; [8]): 25.9%

Cc1ccnc2c1NC(=O)c1cccnc1N2C1CC1 [nevirapine]
remaining activity at 10 µM (HOIP [1]; [8]): 54.8%

NC(=O)c1cnccn1 [pyrazinamide]
remaining activity at 10 µM (HOIP [1]; [8]): 49.3%

Oc1ccc(/C=C/c2cc(O)cc(O)c2)cc1 [resveratrol]
remaining activity at 10 µM (HOIP [1]; [8]): 62.2%
